According to the NIST ThermoML archive (doi:10.1016/j.tca.2011.12.010):

Assay: molar heat capacity at constant pressure
Conditions: 101.33 kPa, Crystal 2, Small sample (50 mg) DSC

O=[N+]([O-])[O-].O=[N+]([O-])[O-].O=[N+]([O-])[O-].O=[N+]([O-])[O-].[K+].[K+].[Mg+2] [bis-potassium magnesium nitrate]
Conditions | molar heat capacity at constant pressure [J/K/mol]
298.15 K | 308
299 K | 308.7
300 K | 309.8
301 K | 310.5
302 K | 310.8
303 K | 311.5
304 K | 312.2
305 K | 312.9
306 K | 314
307 K | 314.7
308 K | 315.7
309 K | 316.4
310 K | 317.5
311 K | 318.5
312 K | 319.2
313 K | 319.9
314 K | 322
315 K | 322
316 K | 322.7
317 K | 323.8
318 K | 324.8
319 K | 325.9
320 K | 326.9
321 K | 328
325 K | 329
326 K | 328
327 K | 329.7
328 K | 330.4
329 K | 331.1
330 K | 331.1
331 K | 331.8
332 K | 332.9
333 K | 334.3
334 K | 334.3
335 K | 334.6
336 K | 335.3
337 K | 335.7
338 K | 336.4
339 K | 336.7
340 K | 337.1
341 K | 338.1
342 K | 338.5
343 K | 338.8
344 K | 339.9
345 K | 341.3
346 K | 342
347 K | 341.6
348 K | 340.6
349 K | 340.6
350 K | 340.9
351 K | 341.3
352 K | 342
353 K | 342.7
354 K | 343.4
355 K | 344.1
356 K | 344.8
357 K | 345.5
358 K | 346.2
359 K | 346.9
360 K | 347.6
361 K | 348.3
362 K | 349.3
363 K | 350.4
364 K | 351.4
365 K | 352.5
366 K | 353.5
367 K | 354.6
368 K | 355.3
369 K | 356
370 K | 356.7
371 K | 357.7
372 K | 357.8
373 K | 358.6
374 K | 360.4
375 K | 362.7
376 K | 367.5
377 K | 372.4
378 K | 374.9
379 K | 375.6
380 K | 375.8
381 K | 376
